Where a SMILES comes first, the peptide text is derived from it. Bridges are numbered along the chain shown (N, C = ends).

One test has as its target human α3β4 nAChR (Homo sapiens, UniProt P30926+P32297). Briefly: cell-based.
Another test deals with human α3β2 nAChR (Homo sapiens, UniProt P17787+P32297). As to the kind of experiment: cell-based. It counts as cell-based.
The target in another test is Ac-AChBP (Aplysia californica, UniProt Q8WSF8). Briefly: biochemical. In kind it is binding.
Sequence of Ac-AChBP (Q8WSF8 20-236 limits assumed): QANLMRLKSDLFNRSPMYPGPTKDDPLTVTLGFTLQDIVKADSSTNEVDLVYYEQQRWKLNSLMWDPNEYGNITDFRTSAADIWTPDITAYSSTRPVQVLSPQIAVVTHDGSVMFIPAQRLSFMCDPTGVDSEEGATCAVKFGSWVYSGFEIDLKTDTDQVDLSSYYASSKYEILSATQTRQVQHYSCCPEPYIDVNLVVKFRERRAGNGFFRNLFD

Sequence of human α3β4 nAChR (P32297 32-505 limits assumed): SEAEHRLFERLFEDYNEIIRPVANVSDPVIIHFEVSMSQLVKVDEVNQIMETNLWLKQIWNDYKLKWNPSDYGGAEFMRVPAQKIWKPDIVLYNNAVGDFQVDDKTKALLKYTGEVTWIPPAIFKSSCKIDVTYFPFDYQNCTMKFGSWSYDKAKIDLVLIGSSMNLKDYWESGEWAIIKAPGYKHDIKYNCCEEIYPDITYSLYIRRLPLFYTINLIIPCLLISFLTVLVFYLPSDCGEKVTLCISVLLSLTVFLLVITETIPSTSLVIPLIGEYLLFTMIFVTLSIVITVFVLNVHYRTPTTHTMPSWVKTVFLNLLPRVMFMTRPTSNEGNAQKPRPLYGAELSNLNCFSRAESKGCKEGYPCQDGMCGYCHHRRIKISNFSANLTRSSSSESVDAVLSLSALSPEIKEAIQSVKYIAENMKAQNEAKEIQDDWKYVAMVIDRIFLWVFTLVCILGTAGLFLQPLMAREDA
Sequence of human α3β4 nAChR (P30926 22-498 limits assumed): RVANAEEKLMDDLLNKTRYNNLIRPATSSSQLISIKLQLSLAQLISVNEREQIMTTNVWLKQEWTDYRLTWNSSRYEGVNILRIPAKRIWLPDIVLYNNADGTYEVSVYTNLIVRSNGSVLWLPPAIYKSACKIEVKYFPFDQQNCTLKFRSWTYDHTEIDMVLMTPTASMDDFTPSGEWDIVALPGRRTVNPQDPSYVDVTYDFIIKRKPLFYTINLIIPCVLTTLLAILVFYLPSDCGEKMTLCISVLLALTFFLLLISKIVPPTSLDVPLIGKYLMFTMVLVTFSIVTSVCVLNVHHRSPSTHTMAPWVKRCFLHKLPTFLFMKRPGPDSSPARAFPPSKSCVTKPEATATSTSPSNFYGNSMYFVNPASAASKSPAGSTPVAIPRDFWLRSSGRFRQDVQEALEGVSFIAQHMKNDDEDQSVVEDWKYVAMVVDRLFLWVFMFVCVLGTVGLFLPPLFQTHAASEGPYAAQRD
Sequence of human α3β2 nAChR (P32297 32-505 limits assumed): as the sequence (P32297 32-505 limits assumed) above
Sequence of human α3β2 nAChR (P17787 26-502 limits assumed): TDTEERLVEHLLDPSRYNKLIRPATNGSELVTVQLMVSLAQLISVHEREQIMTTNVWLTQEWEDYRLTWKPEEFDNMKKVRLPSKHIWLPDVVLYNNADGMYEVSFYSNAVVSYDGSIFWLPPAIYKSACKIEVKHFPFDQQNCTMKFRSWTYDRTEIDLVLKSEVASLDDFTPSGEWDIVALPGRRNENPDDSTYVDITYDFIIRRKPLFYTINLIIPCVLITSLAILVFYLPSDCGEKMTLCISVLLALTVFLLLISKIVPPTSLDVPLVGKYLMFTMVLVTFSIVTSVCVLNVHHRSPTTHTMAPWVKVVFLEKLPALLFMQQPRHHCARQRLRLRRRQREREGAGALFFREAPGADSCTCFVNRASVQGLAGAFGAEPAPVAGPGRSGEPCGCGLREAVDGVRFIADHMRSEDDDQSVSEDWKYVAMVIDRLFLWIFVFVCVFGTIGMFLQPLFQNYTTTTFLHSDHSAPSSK

In the case of `CC[C@H](C)[C@@H]1NC(=O)[C@H](Cc2c[nH]cn2)NC(=O)[C@H](CCC(N)=O)NC(=O)[C@H](CC(N)=O)NC(=O)[C@H](CC(N)=O)NC(=O)CNC(=O)[C@H](C)NC(=O)[C@@H]2CSSC[C@H](NC(=O)CN)C(=O)N[C@@H](CSSC[C@@H](C(N)=O)NC1=O)C(=O)N[C@@H](CO)C(=O)N[C@@H](Cc1c[nH]cn1)C(=O)N1CCC[C@H]1C(=O)N[C@@H](CC(C)C)C(=O)N2` [GIC(A7L)] (H-GCCSHPLCAGNNQHIC-NH2; disulfide 2-8, 3-16), the IC50 on human α3β4 nAChR and against human α3β2 nAChR was over 10 µM each time. Moreover, the “Decrease in the inhibition of α3β2 nAChR versus wild-type GIC” value on human α3β2 nAChR was “more than 10,000 fold”.

In the case of `CC[C@H](C)[C@@H]1NC(=O)[C@H](Cc2c[nH]cn2)NC(=O)[C@H](CCC(N)=O)NC(=O)[C@H](C)NC(=O)[C@H](CC(N)=O)NC(=O)CNC(=O)[C@H](C)NC(=O)[C@@H]2CSSC[C@H](NC(=O)CN)C(=O)N[C@@H](CSSC[C@@H](C(N)=O)NC1=O)C(=O)N[C@@H](CO)C(=O)N[C@@H](Cc1c[nH]cn1)C(=O)N1CCC[C@H]1C(=O)N[C@@H](C)C(=O)N2` [GIC(N12A)] (H-GCCSHPACAGNAQHIC-NH2; disulfide 2-8, 3-16), the IC50 against human α3β4 nAChR is over 10 µM; against human α3β2 nAChR it was 1.98 µM.

Regarding `CC[C@H](C)[C@@H]1NC(=O)[C@H](Cc2c[nH]cn2)NC(=O)[C@H](C)NC(=O)[C@H](CC(N)=O)NC(=O)[C@H](CC(N)=O)NC(=O)CNC(=O)[C@H](C)NC(=O)[C@@H]2CSSC[C@H](NC(=O)CN)C(=O)N[C@@H](CSSC[C@@H](C(N)=O)NC1=O)C(=O)N[C@@H](CO)C(=O)N[C@@H](Cc1c[nH]cn1)C(=O)N1CCC[C@H]1C(=O)N[C@@H](C)C(=O)N2` [GIC(Q13A)], the IC50 was 0.66 µM against human α3β4 nAChR and 0.00841 µM against human α3β2 nAChR.

As for `CC[C@H](C)[C@@H]1NC(=O)[C@H](Cc2c[nH]cn2)NC(=O)[C@H](CCC(N)=O)NC(=O)[C@H](CC(N)=O)NC(=O)[C@H](C)NC(=O)CNC(=O)[C@H](C)NC(=O)[C@@H]2CSSC[C@H](NC(=O)CN)C(=O)N[C@@H](CSSC[C@@H](C(N)=O)NC1=O)C(=O)N[C@@H](CO)C(=O)N[C@@H](Cc1c[nH]cn1)C(=O)N1CCC[C@H]1C(=O)N[C@@H](C)C(=O)N2` [GIC(N11A)] (H-GCCSHPACAGANQHIC-NH2; disulfide 2-8, 3-16), the IC50 was over 10 µM at human α3β4 nAChR and 1.6 µM against human α3β2 nAChR.

Consider `CC[C@H](C)[C@@H]1NC(=O)[C@H](Cc2c[nH]cn2)NC(=O)[C@H](CCC(N)=O)NC(=O)[C@H](CC(N)=O)NC(=O)[C@H](CC(N)=O)NC(=O)CNC(=O)[C@H](C)NC(=O)[C@@H]2CSSC[C@H](NC(=O)CN)C(=O)N[C@@H](CSSC[C@@H](C(N)=O)NC1=O)C(=O)N[C@@H](CO)C(=O)N[C@@H](Cc1c[nH]cn1)C(=O)N1CCC[C@H]1C(=O)NCC(=O)N2` [GIC(A7G)] (H-GCCSHPGCAGNNQHIC-NH2; disulfide 2-8, 3-16), for which the values for the IC50 on human α3β4 nAChR and against human α3β2 nAChR were over 10 µM and 4.21 µM, respectively.

As to `CC[C@H](C)[C@@H]1NC(=O)[C@H](Cc2c[nH]cn2)NC(=O)[C@H](CCC(N)=O)NC(=O)[C@H](CC(N)=O)NC(=O)[C@H](CC(N)=O)NC(=O)CNC(=O)[C@H](C)NC(=O)[C@@H]2CSSC[C@H](NC(=O)CN)C(=O)N[C@@H](CSSC[C@@H](C(N)=O)NC1=O)C(=O)N[C@@H](CO)C(=O)N[C@@H](C)C(=O)N1CCC[C@H]1C(=O)N[C@@H](C)C(=O)N2` [GIC(H5A)] (H-GCCSAPACAGNNQHIC-NH2; disulfide 2-8, 3-16), the IC50 on human α3β4 nAChR and on human α3β2 nAChR was over 10 µM throughout. The “Increase in the IC50 value for Ac-AChBP versus wild-type GIC” value on Ac-AChBP was about 100 fold. Moreover, at human α3β2 nAChR, the “Decrease in the inhibition of α3β2 nAChR versus wild-type GIC” value was “more than 10,000 fold”.

For orientation: IC50 means the concentration that gives 50% inhibition.

Source of the values: PMC4772116 (Scientific Reports, 2016).
